Results published in ChEMBL document CHEMBL1201862, “PubChem BioAssay data set” (2004).
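The compound was tested at five concentrations on cells cultured in 96-well plates, with a 48-hour exposure period. GI50 marks 50% less growth.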 Active and inactive are the calls of the source. Cut-off read from the data, not from the text of the source: active = GI50 up to about 1.1 µM and inactive = higher.

Legend:
Experiment in all cases: growth of human tumour cells (NCI), 48 h
A549 = system: A549
DU-145 = system: DU-145
HOP-62 = system: HOP-62
Hs-578T = system: Hs-578T
IGROV-1 = system: IGROV-1
K562 = system: K562
LOX IMVI = system: LOX IMVI
MDA-MB-435 = system: MDA-MB-435
NCI-H460 = system: NCI-H460
NCI-H522 = system: NCI-H522
OVCAR-3 = system: OVCAR-3
RPMI-8226 = system: RPMI-8226
RXF 393 = system: RXF 393
SF-268 = system: SF-268
SF-539 = system: SF-539
SN12C = system: SN12C
SNB-75 = system: SNB-75
TK-10 = system: TK-10
HCC 2998 = system: HCC 2998
SK-MEL-28 = system: SK-MEL-28

CCNC1(c2cccc(C)c2)OC(C)(C)c2cccc3cccc1c23 (stereo not drawn)
GI50 (A549): 15.6 µM (inactive)
GI50 (DU-145): 17.7 µM (inactive)
GI50 (HOP-62): 21 µM (inactive)
GI50 (Hs-578T): 20.1 µM (inactive)
GI50 (IGROV-1): 17.8 µM (inactive)
GI50 (K562): 11.7 µM (inactive)
GI50 (LOX IMVI): 17.3 µM (inactive)
GI50 (MDA-MB-435): 16.9 µM (inactive)
GI50 (NCI-H460): 15.2 µM (inactive)
GI50 (NCI-H522): 15.1 µM (inactive)
GI50 (OVCAR-3): 17.3 µM (inactive)
GI50 (RPMI-8226): 0.0321 µM (active)
GI50 (RXF 393): 16.8 µM (inactive)
GI50 (SF-268): 16 µM (inactive)
GI50 (SF-539): 17.9 µM (inactive)
GI50 (SN12C): 19 µM (inactive)
GI50 (SNB-75): 15 µM (inactive)
GI50 (TK-10): 17.3 µM (inactive)

COc1ccc2c(c1)CC[C@@H]1C2CC[C@]2(C)C(=O)N(CCN(C)C)C(=O)CC12 (stereo partly drawn)
GI50 (A549): > 100 µM (inactive)
GI50 (DU-145): > 100 µM (inactive)
GI50 (HCC 2998): > 100 µM (inactive)
GI50 (HOP-62): > 100 µM (inactive)
GI50 (Hs-578T): > 100 µM (inactive)
GI50 (IGROV-1): > 100 µM (inactive)
GI50 (K562): > 100 µM (inactive)
GI50 (MDA-MB-435): > 100 µM (inactive)
GI50 (NCI-H460): > 100 µM (inactive)
GI50 (NCI-H522): > 100 µM (inactive)
GI50 (OVCAR-3): > 100 µM (inactive)
GI50 (RXF 393): > 100 µM (inactive)
GI50 (SF-268): > 100 µM (inactive)
GI50 (SF-539): > 100 µM (inactive)
GI50 (SK-MEL-28): > 100 µM (inactive)
GI50 (SN12C): > 100 µM (inactive)
GI50 (SNB-75): > 100 µM (inactive)
GI50 (TK-10): > 100 µM (inactive)

CC1=NN(c2nc(N)nc(CF)n2)C(C)(C)C1
GI50 (DU-145): > 100 µM (inactive)
GI50 (HCC 2998): > 100 µM (inactive)
GI50 (HOP-62): > 100 µM (inactive)
GI50 (Hs-578T): > 100 µM (inactive)
GI50 (IGROV-1): > 100 µM (inactive)
GI50 (K562): 49.3 µM (inactive)
GI50 (LOX IMVI): > 100 µM (inactive)
GI50 (MDA-MB-435): > 100 µM (inactive)
GI50 (NCI-H460): > 100 µM (inactive)
GI50 (RPMI-8226): > 100 µM (inactive)
GI50 (RXF 393): > 100 µM (inactive)
GI50 (SF-268): > 100 µM (inactive)
GI50 (SF-539): > 100 µM (inactive)
GI50 (SK-MEL-28): > 100 µM (inactive)
GI50 (SNB-75): > 100 µM (inactive)
GI50 (TK-10): > 100 µM (inactive)

CCCCc1ccc(-n2sc3ncc(C)cc3c2=O)cc1
GI50 (A549): 20.6 µM (inactive)
GI50 (DU-145): 30.3 µM (inactive)
GI50 (HCC 2998): 37.5 µM (inactive)
GI50 (HOP-62): 30.3 µM (inactive)
GI50 (Hs-578T): > 100 µM (inactive)
GI50 (IGROV-1): 21.7 µM (inactive)
GI50 (K562): 43.9 µM (inactive)
GI50 (LOX IMVI): 18.2 µM (inactive)
GI50 (MDA-MB-435): 79.8 µM (inactive)
GI50 (NCI-H460): 12.6 µM (inactive)
GI50 (NCI-H522): 16.3 µM (inactive)
GI50 (OVCAR-3): 18.5 µM (inactive)
GI50 (RPMI-8226): 22 µM (inactive)
GI50 (RXF 393): 27.2 µM (inactive)
GI50 (SK-MEL-28): 96.2 µM (inactive)
GI50 (SN12C): 21.9 µM (inactive)
GI50 (SNB-75): 42.9 µM (inactive)
GI50 (TK-10): 29.1 µM (inactive)

C#CCNC(Cc1ccccc1)C(=O)O (stereo not drawn)
GI50 (A549): > 100 µM (inactive)
GI50 (DU-145): > 100 µM (inactive)
GI50 (HCC 2998): > 100 µM (inactive)
GI50 (HOP-62): > 100 µM (inactive)
GI50 (Hs-578T): > 100 µM (inactive)
GI50 (IGROV-1): > 100 µM (inactive)
GI50 (K562): > 100 µM (inactive)
GI50 (LOX IMVI): > 100 µM (inactive)
GI50 (MDA-MB-435): > 100 µM (inactive)
GI50 (NCI-H460): > 100 µM (inactive)
GI50 (NCI-H522): > 100 µM (inactive)
GI50 (OVCAR-3): > 100 µM (inactive)
GI50 (RPMI-8226): > 100 µM (inactive)
GI50 (RXF 393): > 100 µM (inactive)
GI50 (SF-268): > 100 µM (inactive)
GI50 (SK-MEL-28): > 100 µM (inactive)
GI50 (SNB-75): > 100 µM (inactive)
GI50 (TK-10): > 100 µM (inactive)

COc1ccc(/N=C2\C(=O)C3=C(OC(C)(C)CC3)c3ccccc32)cc1
GI50 (A549): 0.946 µM (active)
GI50 (DU-145): 0.871 µM (active)
GI50 (HCC 2998): 1.51 µM (inactive)
GI50 (HOP-62): 0.91 µM (active)
GI50 (Hs-578T): 1.63 µM (inactive)
GI50 (IGROV-1): 1.36 µM (inactive)
GI50 (K562): 0.612 µM (active)
GI50 (LOX IMVI): 0.481 µM (active)
GI50 (MDA-MB-435): 0.264 µM (active)
GI50 (NCI-H460): 1.5 µM (inactive)
GI50 (NCI-H522): 1.04 µM (active)
GI50 (OVCAR-3): 0.361 µM (active)
GI50 (RXF 393): 1.09 µM (active)
GI50 (SF-268): 1.8 µM (inactive)
GI50 (SF-539): 0.005 µM (active)
GI50 (SK-MEL-28): 1.14 µM (inactive)
GI50 (SN12C): 0.889 µM (active)
GI50 (SNB-75): 1.11 µM (active)
GI50 (TK-10): 2.33 µM (inactive)

c1ccc2/c3[nH]/c(c2c1)=N\c1ccc(cc1)-c1nc2cc(ccc2o1)/N=c1/[nH]/c(c2ccccc12)=N/c1ccc2nc(oc2c1)-c1ccc(cc1)\N=3
GI50 (DU-145): > 100 µM (inactive)
GI50 (HCC 2998): 6.9 µM (inactive)
GI50 (HOP-62): 78.3 µM (inactive)
GI50 (Hs-578T): > 100 µM (inactive)
GI50 (IGROV-1): > 100 µM (inactive)
GI50 (K562): > 100 µM (inactive)
GI50 (LOX IMVI): > 100 µM (inactive)
GI50 (MDA-MB-435): 42.4 µM (inactive)
GI50 (NCI-H460): 51.8 µM (inactive)
GI50 (NCI-H522): > 100 µM (inactive)
GI50 (RXF 393): > 100 µM (inactive)
GI50 (SF-268): > 100 µM (inactive)
GI50 (SK-MEL-28): > 100 µM (inactive)
GI50 (SN12C): > 100 µM (inactive)

Cn1c(=O)c2c(nc(-n3nc(-c4ccc(Cl)cc4)cc3N)n2C)n(C)c1=O
GI50 (A549): > 100 µM (inactive)
GI50 (DU-145): > 100 µM (inactive)
GI50 (HCC 2998): > 100 µM (inactive)
GI50 (HOP-62): 10.5 µM (inactive)
GI50 (Hs-578T): 22.4 µM (inactive)
GI50 (IGROV-1): > 100 µM (inactive)
GI50 (K562): 67.6 µM (inactive)
GI50 (MDA-MB-435): > 100 µM (inactive)
GI50 (NCI-H460): > 100 µM (inactive)
GI50 (OVCAR-3): > 100 µM (inactive)
GI50 (RPMI-8226): 69.7 µM (inactive)
GI50 (RXF 393): > 100 µM (inactive)
GI50 (SF-268): 9.91 µM (inactive)
GI50 (SF-539): 17.3 µM (inactive)
GI50 (SK-MEL-28): > 100 µM (inactive)
GI50 (SN12C): > 100 µM (inactive)
GI50 (TK-10): > 100 µM (inactive)
